Data reported in paper PMC12421961, “PmeR, a TetR-like transcriptional regulator, is involved in both auxin signaling and virulence in the plant pathogen Pseudomonas syringae strain PtoDC3000” (mBio, 2025).

Assays:
PmeR = target: T1, PmeR (Pseudomonas syringae group genomosp. 3, UniProt Q87X86); experiment: EMSA, release of PmeR from […]-labelled operator DNA; format: binding; details: 6.25 nM PmeR, 1.5 nM pmeR-mexA intergenic DNA probe, pH 8.0, 25 °C; lowest complete-release concentration in a dilution series, not a Kd or IC50
T1 construct: gene PSPTO_4302; full-length coding region (672 bp), N-terminal His tag, pET-28a, E. coli BL21(DE3), codon-optimized; nickel column; tag removal not mentioned

[1] = target: T2, PmeR (TetR-like regulator) (Pseudomonas syringae strain PtoDC3000) (UniProt Q87X86); experiment: competition; details: 25 mM Tris-acetate pH 8.0, 8 mM Mg-acetate, 10 mM KCl, 1 mM DTT, 460 uM HCl ([…]
T2 sequence: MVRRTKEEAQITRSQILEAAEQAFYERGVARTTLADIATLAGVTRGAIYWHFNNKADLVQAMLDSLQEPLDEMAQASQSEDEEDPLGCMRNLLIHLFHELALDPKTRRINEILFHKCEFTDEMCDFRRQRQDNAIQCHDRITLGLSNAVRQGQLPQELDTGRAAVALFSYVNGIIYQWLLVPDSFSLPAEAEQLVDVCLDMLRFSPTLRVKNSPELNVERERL

Row | Compound | concentration sufficient for complete shift to unbound DNA (PmeR) | binding [1]
1 | N[C@@H](CCCCNC(=O)Cc1c[nH]c2ccccc12)C(=O)O [IAA-Lys] | 750 µM | 
2 | CGGAATTCGGTGCGACGAACCATGGCAATAAGACCTCAAAAGATTCACCTCATGCGTGCATCTGGTGCATGCCTTGAGGTATGACCGGGCGGCATTTGTCTCGCCTTGTCCCGAACTGGCATTCAGCACCTTGAATAGTGGCCGAATGCGCAAAGCGGGTGTTTACAAACAACCGCGAATGTAAGTATATTCCTTAGCATGCTACTTATCTAGCCGAAATATTTTTTAACACTTCAACGTACTGTTGAGAAAACAGGCTCCTGCCCCGAGGATCTTCGGTACCCC (double strand) [pmeR-mexA intergenic region probe] |  | binds
